Reference: US8680012B2, “4-phenyl-pyrane-3,5-diones,4-phenyl-thiopyrane-3,6-diones and cyclohexanetriones as novel herbicides” (Syngenta Crop Protection LLC, priority 2006, dated 2014)

Each compound was assayed on Avena fatua (AVEFA) (assay: Example B post-emergence herbicidal activity, glasshouse pot test). Conditions: 312 h, rate 250 g/ha, evaluated after 13 days, read-out: Post-emergence activity AVEFA (100=total damage to plant; 0=no damage to plant).
Assay type: in vivo
Outline: (§1)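 Herbicidal effect was judged 13 days after treatment as percent-style damage (100 = total kill). Seeds in standard soil had grown 1 day (pre) or 8 days (post) in a 24/16 °C, 14 h light, 65% humidity glasshouse before spraying with compound in acetone/water (50:50) containing 0.5% Tween 20.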
`CCOc1ccc(-c2ccc(Cl)cc2F)cc1C1=C(O)C(C)(C)OC(C)(C)C1=O` [Compound A-88] was tested, and the pest or weed control at 250 g/ha was 10%.
In the case of `CCOc1ccc(-c2ccc(Cl)cc2)cc1C1=C(O)C(C)(C)OC(C)(C)C1=O` [Compound A-89], the pest or weed control at 250 g/ha is reported as 50%.
Compound `COc1ccc(-c2ccc(Cl)cc2)cc1C1=C(O)C(C)(C)OC(C)(C)C1=O` [Compound A-90] has a pest or weed control at 250 g/ha of 20%.
`Cc1cc(C)c(-c2ccc(Cl)cc2)c(C)c1C1=C(O)C(C)(C)OC(C)(C)C1=O` [Compound A-92] was tested, and the pest or weed control at 250 g/ha was 0%.

These compounds were tested on Echinochloa crus-galli (ECHCG) in the same assay as above. Conditions: 312 h, rate 250 g/ha, evaluated after 13 days, read-out: Post-emergence activity ECHCG (100=total damage to plant; 0=no damage to plant).
Assay type: in vivo
Outline: as §1
For `CCOc1ccc(-c2ccc(Cl)cc2F)cc1C1=C(O)C(C)(C)OC(C)(C)C1=O` [Compound A-88], the pest or weed control at 250 g/ha was 90%.
In the case of `CCOc1ccc(-c2ccc(Cl)cc2)cc1C1=C(O)C(C)(C)OC(C)(C)C1=O` [Compound A-89], the pest or weed control at 250 g/ha is reported as 90%.
For `COc1ccc(-c2ccc(Cl)cc2)cc1C1=C(O)C(C)(C)OC(C)(C)C1=O` [Compound A-90], the pest or weed control at 250 g/ha was 90%.
`Cc1cc(C)c(-c2ccc(Cl)cc2)c(C)c1C1=C(O)C(C)(C)OC(C)(C)C1=O` [Compound A-92] gave a pest or weed control at 250 g/ha of 100%.

What follows are compounds tested on Alopecurus myosuroides (ALOMY) in the same assay as above. Conditions: 312 h, rate 250 g/ha, evaluated after 13 days, read-out: Post-emergence activity ALOMY (100=total damage to plant; 0=no damage to plant).
Assay type: in vivo
Outline: as §1
`CCOc1ccc(-c2ccc(Cl)cc2F)cc1C1=C(O)C(C)(C)OC(C)(C)C1=O` [Compound A-88] gave a pest or weed control at 250 g/ha of 50%.
For `CCOc1ccc(-c2ccc(Cl)cc2)cc1C1=C(O)C(C)(C)OC(C)(C)C1=O` [Compound A-89], the pest or weed control at 250 g/ha was 80%.
With `COc1ccc(-c2ccc(Cl)cc2)cc1C1=C(O)C(C)(C)OC(C)(C)C1=O` [Compound A-90] the pest or weed control at 250 g/ha was 40%.
With `Cc1cc(C)c(-c2ccc(Cl)cc2)c(C)c1C1=C(O)C(C)(C)OC(C)(C)C1=O` [Compound A-92] the pest or weed control at 250 g/ha was 50%.

What follows are compounds tested on Amaranthus retroflexus (AMARE) in the same assay as above. Conditions: 312 h, rate 250 g/ha, evaluated after 13 days, read-out: Post-emergence activity AMARE (100=total damage to plant; 0=no damage to plant).
Assay type: in vivo
Outline: as §1
Compound `CCOc1ccc(-c2ccc(Cl)cc2F)cc1C1=C(O)C(C)(C)OC(C)(C)C1=O` [Compound A-88] has a pest or weed control at 250 g/ha of 0%.
With `CCOc1ccc(-c2ccc(Cl)cc2)cc1C1=C(O)C(C)(C)OC(C)(C)C1=O` [Compound A-89] the pest or weed control at 250 g/ha was 0%.
`COc1ccc(-c2ccc(Cl)cc2)cc1C1=C(O)C(C)(C)OC(C)(C)C1=O` [Compound A-90] was tested, and the pest or weed control at 250 g/ha was 0%.
`Cc1cc(C)c(-c2ccc(Cl)cc2)c(C)c1C1=C(O)C(C)(C)OC(C)(C)C1=O` [Compound A-92] gave a pest or weed control at 250 g/ha of 0%.

Each compound was assayed on Setaria faberi (SETFA) in the same assay as above. Conditions: 312 h, rate 250 g/ha, evaluated after 13 days, read-out: Post-emergence activity SETFA (100=total damage to plant; 0=no damage to plant).
Assay type: in vivo
Outline: as §1
Compound `CCOc1ccc(-c2ccc(Cl)cc2F)cc1C1=C(O)C(C)(C)OC(C)(C)C1=O` [Compound A-88] has a pest or weed control at 250 g/ha of 90%.
`CCOc1ccc(-c2ccc(Cl)cc2)cc1C1=C(O)C(C)(C)OC(C)(C)C1=O` [Compound A-89] gave a pest or weed control at 250 g/ha of 80%.
Work on `COc1ccc(-c2ccc(Cl)cc2)cc1C1=C(O)C(C)(C)OC(C)(C)C1=O` [Compound A-90] yielded a pest or weed control at 250 g/ha of 90%.
Compound `Cc1cc(C)c(-c2ccc(Cl)cc2)c(C)c1C1=C(O)C(C)(C)OC(C)(C)C1=O` [Compound A-92] has a pest or weed control at 250 g/ha of 90%.

What follows are compounds tested on Avena fatua (AVEFA) (assay: Example B pre-emergence herbicidal activity, glasshouse pot test). Conditions: 312 h, rate 250 g/ha, evaluated after 13 days, read-out: Pre-emergence activity AVEFA (100=total damage to plant; 0=no damage to plant).
Assay type: in vivo
Outline: as §1
For `CCOc1ccc(-c2ccc(Cl)cc2F)cc1C1=C(O)C(C)(C)OC(C)(C)C1=O` [Compound A-88], the pest or weed control at 250 g/ha was 10%.
`CCOc1ccc(-c2ccc(Cl)cc2)cc1C1=C(O)C(C)(C)OC(C)(C)C1=O` [Compound A-89] gave a pest or weed control at 250 g/ha of 0%.
`COc1ccc(-c2ccc(Cl)cc2)cc1C1=C(O)C(C)(C)OC(C)(C)C1=O` [Compound A-90] showed a pest or weed control at 250 g/ha of 0%.
`Cc1cc(C)c(-c2ccc(Cl)cc2)c(C)c1C1=C(O)C(C)(C)OC(C)(C)C1=O` [Compound A-92] gave a pest or weed control at 250 g/ha of 0%.

These compounds were tested on Echinochloa crus-galli (ECHCG) in the same assay as above. Conditions: 312 h, rate 250 g/ha, evaluated after 13 days, read-out: Pre-emergence activity ECHCG (100=total damage to plant; 0=no damage to plant).
Assay type: in vivo
Outline: as §1
In the case of `CCOc1ccc(-c2ccc(Cl)cc2F)cc1C1=C(O)C(C)(C)OC(C)(C)C1=O` [Compound A-88], the pest or weed control at 250 g/ha is reported as 0%.
`CCOc1ccc(-c2ccc(Cl)cc2)cc1C1=C(O)C(C)(C)OC(C)(C)C1=O` [Compound A-89] was tested, and the pest or weed control at 250 g/ha was 0%.
With `COc1ccc(-c2ccc(Cl)cc2)cc1C1=C(O)C(C)(C)OC(C)(C)C1=O` [Compound A-90] the pest or weed control at 250 g/ha was 0%.
Work on `Cc1cc(C)c(-c2ccc(Cl)cc2)c(C)c1C1=C(O)C(C)(C)OC(C)(C)C1=O` [Compound A-92] yielded a pest or weed control at 250 g/ha of 50%.

What follows are compounds tested on Alopecurus myosuroides (ALOMY) in the same assay as above. Conditions: 312 h, rate 250 g/ha, evaluated after 13 days, read-out: Pre-emergence activity ALOMY (100=total damage to plant; 0=no damage to plant).
Assay type: in vivo
Outline: as §1
`CCOc1ccc(-c2ccc(Cl)cc2F)cc1C1=C(O)C(C)(C)OC(C)(C)C1=O` [Compound A-88] was tested, and the pest or weed control at 250 g/ha was 0%.
Work on `CCOc1ccc(-c2ccc(Cl)cc2)cc1C1=C(O)C(C)(C)OC(C)(C)C1=O` [Compound A-89] yielded a pest or weed control at 250 g/ha of 0%.
Work on `COc1ccc(-c2ccc(Cl)cc2)cc1C1=C(O)C(C)(C)OC(C)(C)C1=O` [Compound A-90] yielded a pest or weed control at 250 g/ha of 0%.
For `Cc1cc(C)c(-c2ccc(Cl)cc2)c(C)c1C1=C(O)C(C)(C)OC(C)(C)C1=O` [Compound A-92], the pest or weed control at 250 g/ha was 10%.

Each compound was assayed on Amaranthus retroflexus (AMARE) in the same assay as above. Conditions: 312 h, rate 250 g/ha, evaluated after 13 days, read-out: Pre-emergence activity AMARE (100=total damage to plant; 0=no damage to plant).
Assay type: in vivo
Outline: as §1
With `CCOc1ccc(-c2ccc(Cl)cc2F)cc1C1=C(O)C(C)(C)OC(C)(C)C1=O` [Compound A-88] the pest or weed control at 250 g/ha was 0%.
Work on `CCOc1ccc(-c2ccc(Cl)cc2)cc1C1=C(O)C(C)(C)OC(C)(C)C1=O` [Compound A-89] yielded a pest or weed control at 250 g/ha of 0%.
For `COc1ccc(-c2ccc(Cl)cc2)cc1C1=C(O)C(C)(C)OC(C)(C)C1=O` [Compound A-90], the pest or weed control at 250 g/ha was 0%.
`Cc1cc(C)c(-c2ccc(Cl)cc2)c(C)c1C1=C(O)C(C)(C)OC(C)(C)C1=O` [Compound A-92] showed a pest or weed control at 250 g/ha of 0%.

These compounds were tested on Setaria faberi (SETFA) in the same assay as above. Conditions: 312 h, rate 250 g/ha, evaluated after 13 days, read-out: Pre-emergence activity SETFA (100=total damage to plant; 0=no damage to plant).
Assay type: in vivo
Outline: as §1
Compound `CCOc1ccc(-c2ccc(Cl)cc2F)cc1C1=C(O)C(C)(C)OC(C)(C)C1=O` [Compound A-88] has a pest or weed control at 250 g/ha of 0%.
`CCOc1ccc(-c2ccc(Cl)cc2)cc1C1=C(O)C(C)(C)OC(C)(C)C1=O` [Compound A-89] gave a pest or weed control at 250 g/ha of 50%.
In the case of `COc1ccc(-c2ccc(Cl)cc2)cc1C1=C(O)C(C)(C)OC(C)(C)C1=O` [Compound A-90], the pest or weed control at 250 g/ha is reported as 0%.
For `Cc1cc(C)c(-c2ccc(Cl)cc2)c(C)c1C1=C(O)C(C)(C)OC(C)(C)C1=O` [Compound A-92], the pest or weed control at 250 g/ha was 60%.
